{"source": "paper PMC6011181", "about": "“The Mechanism of Acetyl Transfer Catalyzed by Mycobacterium tuberculosis GlmU” (Biochemistry, 2018)", "key": {"GlmU [1]": {"target": "T1, GlmU (Mycobacterium tuberculosis, UniProt P9WMN3)", "T1 sequence (P9WMN3 whole entry, looked up)": "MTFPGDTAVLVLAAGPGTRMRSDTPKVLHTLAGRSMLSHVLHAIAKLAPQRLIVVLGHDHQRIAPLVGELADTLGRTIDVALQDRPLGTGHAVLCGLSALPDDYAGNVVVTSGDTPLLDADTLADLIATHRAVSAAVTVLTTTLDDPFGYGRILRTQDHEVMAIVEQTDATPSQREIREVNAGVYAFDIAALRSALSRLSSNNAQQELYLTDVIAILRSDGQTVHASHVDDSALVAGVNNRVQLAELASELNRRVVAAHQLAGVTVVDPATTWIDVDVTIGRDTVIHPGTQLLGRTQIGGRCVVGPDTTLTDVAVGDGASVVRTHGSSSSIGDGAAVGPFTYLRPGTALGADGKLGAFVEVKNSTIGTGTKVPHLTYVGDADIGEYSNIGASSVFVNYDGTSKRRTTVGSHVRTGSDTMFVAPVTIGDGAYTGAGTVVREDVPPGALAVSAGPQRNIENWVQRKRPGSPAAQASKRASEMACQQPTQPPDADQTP", "test": "biochemical", "assay_type": "binding"}, "GlmU [2]": {"target": "T1, GlmU", "test": "acetyltransferase inhibition assay", "assay_type": "biochemical"}, "GlmU [3]": {"target": "T1, GlmU", "test": "acetyltransferase dead-end inhibition, initial velocities versus Ac-CoA", "assay_type": "biochemical", "conditions": "read-out: Kis"}, "GlmU [4]": {"target": "T1, GlmU", "test": "biochemical", "conditions": "read-out: Kis"}, "GlmU [5]": {"target": "T1, GlmU", "test": "acetyltransferase DTP absorbance assay (CoA-SH release)", "assay_type": "biochemical"}, "GlmU [6]": {"target": "T1, GlmU", "test": "acetyltransferase dead-end inhibition, initial velocities versus GlcN-1P", "assay_type": "biochemical", "conditions": "read-out: Kis"}, "GlmU [7]": {"target": "T1, GlmU", "assay_type": "biochemical"}, "His374": {"target": "His374 (UniProt position 374, GTKVPHLTYVG)", "test": "kinetics", "conditions": "30 °C (stated for the acetyltransferase assay; not restated for the pH-rate studies); constant-ionic-strength three-component buffer (value not stated); 10 mM MgCl2; Vmax conditions (enzyme saturated with Ac-CoA and GlcN-1P), Mg2+ present"}, "[8]": {"test_system": "N[C@H]1[C@@H](OP(=O)(O)OP(=O)(O)OC[C@H]2O[C@@H](n3ccc(=O)[nH]c3=O)[C@H](O)[C@@H]2O)O[C@H](CO)[C@@H](O)[C@@H]1O", "test": "purified protein", "conditions": "co-substrate Ac-CoA saturating, pH 7.5, 30 °C, 10 mM MgCl2, acetyltransferase site"}, "[9]": {"test_system": "N[C@H]1[C@@H](OP(=O)(O)O)O[C@H](CO)[C@@H](O)[C@@H]1O", "test": "purified protein", "conditions": "co-substrate Ac-CoA saturating, pH 7.5, 30 °C, 10 mM MgCl2"}, "[10]": {"test_system": "CC(=O)N[C@H]1[C@@H](OP(=O)(O)O)O[C@H](CO)[C@@H](O)[C@@H]1O", "test": "purified protein", "conditions": "co-substrate UTP saturating, pH 7.5, 30 °C, 10 mM MgCl2, uridylyltransferase site"}, "[11]": {"test_system": "O=c1ccn([C@@H]2O[C@H](COP(=O)(O)OP(=O)(O)OP(=O)(O)O)[C@@H](O)[C@H]2O)c(=O)[nH]1", "test": "purified protein", "conditions": "co-substrate GlcNAc-1P saturating, pH 7.5, 30 °C, 10 mM MgCl2, uridylyltransferase site"}, "[12]": {"test_system": "CC(=O)SCCNC(=O)CCNC(=O)[C@H](O)C(C)(C)COP(=O)(O)OP(=O)(O)OC[C@H]1O[C@@H](n2cnc3c(N)ncnc32)[C@H](O)[C@@H]1OP(=O)(O)O", "test": "purified protein", "conditions": "co-substrate GlcN-1P saturating, pH 7.5, 30 °C, 10 mM MgCl2"}, "[13]": {"conditions": "Km concentrations of Ac-CoA and GlcN-1P, pH 7.5, 30 °C, 10 mM MgCl2, acetyltransferase site, read-out: no inhibition at ≤10 mM"}}, "note": "Where two headings read alike, the source gives them in different places.", "data": [{"compound": "CC(=O)SCCNC(=O)CCNC(=O)[C@H](O)C(C)(C)COP(=O)(O)OP(=O)(O)OC[C@H]1O[C@@H](n2cnc3c(N)ncnc32)[C@H](O)[C@@H]1OP(=O)(O)O", "note": "[Ac-CoA]", "values": [{"measurement": "Kd", "setting": "GlmU [1]; read-out: Kd (μM) ^b", "value": "250 ± 25", "unit": "µM"}]}, {"compound": "CCCC(=O)SCCNC(=O)CCNC(=O)[C@H](O)C(C)(C)COP(=O)(O)OP(=O)(O)OC[C@H]1O[C@@H](n2cnc3c(N)ncnc32)[C@H](O)[C@@H]1OP(=O)(O)O", "note": "[Bu-CoA]", "values": [{"measurement": "Kd", "setting": "GlmU [1]; read-out: Kd (mM) ^c", "value": "3800 ± 800", "unit": "µM"}, {"measurement": "IC50", "setting": "GlmU [2]; read-out: IC50 (mM) ^b, ^c", "value": "1 ± 0.03", "unit": "mM"}, {"measurement": "Ki", "setting": "GlmU [3]", "value": "350 ± 30", "unit": "µM"}]}, {"compound": "CC(C)(COP(=O)(O)OP(=O)(O)OC[C@H]1O[C@@H](n2cnc3c(N)ncnc32)[C@H](O)[C@@H]1OP(=O)(O)O)[C@@H](O)C(=O)NCCC(=O)NCCS", "note": "[CoA-SH]", "values": [{"measurement": "Ki", "setting": "GlmU [4]", "value": "150 ± 15", "unit": "µM"}, {"measurement": "Kd", "setting": "GlmU [1]; read-out: Kd (mM) ^c", "value": "700 ± 130", "unit": "µM"}, {"measurement": "IC50", "setting": "GlmU [5]", "value": "0.3 ± 0.01", "unit": "mM"}]}, {"compound": "C/C=C/C(=O)SCCNC(=O)CCNC(=O)[C@H](O)C(C)(C)COP(=O)(O)OP(=O)(O)OC[C@H]1O[C@@H](n2cnc3c(N)ncnc32)[C@H](O)[C@@H]1OP(=O)(O)O", "note": "[Cro-CoA]", "values": [{"measurement": "IC50", "setting": "GlmU [2]; read-out: IC50 (mM) ^b, ^c", "value": "1 ± 0.15", "unit": "mM"}]}, {"compound": "O=P(O)(O)O[C@H]1O[C@H](CO)[C@@H](O)[C@H](O)[C@H]1O", "note": "[Glc-1P]", "values": [{"measurement": "Kd", "setting": "GlmU [1]; read-out: Kd", "value": "1700 ± 400", "unit": "µM"}, {"measurement": "Ki", "setting": "GlmU [6]", "value": "4100 ± 600", "unit": "µM"}, {"measurement": "IC50", "setting": "GlmU [2]; read-out: IC50 (mM) ^b, ^c", "value": "5 ± 0.65", "unit": "mM"}]}, {"compound": "N[C@H]1[C@@H](OP(=O)(O)O)O[C@H](CO)[C@@H](O)[C@@H]1O", "note": "[GlcN-1P]", "values": [{"measurement": "Kd", "setting": "GlmU [7]", "value": "in the presence of high concentrations of the second substrate, the Kd values for the complex"}]}, {"compound": "N[C@H]1C(O)O[C@H](COP(=O)(O)O)[C@@H](O)[C@@H]1O", "note": "(stereo partly shown) [GlcN-6P]", "values": [{"measurement": "IC50", "setting": "GlmU [2]; Km concentrations of Ac-CoA and GlcN-1P, pH 7.5, 30 °C, 10 mM MgCl2, read-out: IC50 (mM) ^b, ^c", "value": "10 ± 0.89", "unit": "mM"}]}, {"compound": "CC(C)C(=O)SCCNC(=O)CCNC(=O)[C@H](O)C(C)(C)COP(=O)(O)OP(=O)(O)OC[C@H]1O[C@@H](n2cnc3c(N)ncnc32)[C@H](O)[C@@H]1OP(=O)(O)O", "note": "[IsoBu-CoA]", "values": [{"measurement": "IC50", "setting": "GlmU [2]; read-out: IC50 (mM) ^b, ^c", "value": "2 ± 0.21", "unit": "mM"}]}, {"compound": "CC(C)(COP(=O)(O)OP(=O)(O)OC[C@H]1O[C@@H](n2cnc3c(N)ncnc32)[C@H](O)[C@@H]1OP(=O)(O)O)[C@@H](O)C(=O)NCCC(=O)NCCSC(=O)CC(=O)O", "note": "[Mlo-CoA]", "values": [{"measurement": "IC50", "setting": "GlmU [2]; read-out: IC50 (mM) ^b, ^c", "value": "2 ± 0.59", "unit": "mM"}]}, {"compound": "CC(=O)N[C@H]1C(O)O[C@H](CO)[C@H](O)[C@@H]1O", "note": "(stereo partly shown) [N-acetyl-galactosamine]", "values": [{"measurement": "IC50", "setting": "GlmU [2]; [13]", "value": "> 10", "unit": "mM"}]}, {"compound": "CC(=O)N[C@@H]1C(O)O[C@H](CO)[C@@H](O)[C@@H]1O", "note": "(stereo partly shown) [N-acetyl-mannosamine]", "values": [{"measurement": "IC50", "setting": "GlmU [2]; [13]", "value": "> 10", "unit": "mM"}]}, {"compound": "CCC(=O)SCCNC(=O)CCNC(=O)[C@H](O)C(C)(C)COP(=O)(O)OP(=O)(O)OC[C@H]1O[C@@H](n2cnc3c(N)ncnc32)[C@H](O)[C@@H]1OP(=O)(O)O", "note": "[Pro-CoA]", "values": [{"measurement": "Kd", "setting": "GlmU [1]; read-out: Kd (μM) ^b", "value": "500 ± 100", "unit": "µM"}]}, {"compound": "O=P(O)(O)OC[C@H]1OC(O)[C@H](O)[C@@H](O)[C@@H]1O", "note": "(stereo partly shown) [glucose 6-phosphate]", "values": [{"measurement": "IC50", "setting": "GlmU [2]; [13]", "value": "> 10", "unit": "mM"}]}, {"compound": "O=P(O)(O)O[C@H]1O[C@H](CO)[C@@H](O)[C@H](O)[C@@H]1O", "note": "[mannose 1-phosphate]", "values": [{"measurement": "IC50", "setting": "GlmU [2]; read-out: no inhibition at ≤10 mM", "value": "> 10", "unit": "mM"}]}, {"compound": "O=P(O)(O)OC[C@H]1OC(O)[C@@H](O)[C@@H](O)[C@@H]1O", "note": "(stereo partly shown) [mannose 6-phosphate]", "values": [{"measurement": "IC50", "setting": "GlmU [2]; [13]", "value": "> 10", "unit": "mM"}]}, {"compound": "Bifunctional N-acetyltransferase/uridylyltransferase GlmU (Mycobacterium tuberculosis H37Rv)", "values": [{"measurement": "pKa", "setting": "His374", "value": "6.7 ± 0.1"}]}, {"compound": "GlmU (Mycobacterium tuberculosis H37Rv)", "values": [{"measurement": "Km", "setting": "[8]", "value": "9700 ± 600", "unit": "µM"}, {"measurement": "kcat", "setting": "[8]", "value": "2.04 ± 0.06", "unit": "s⁻¹"}, {"measurement": "kcat/Km", "setting": "[8]", "value": "220 ± 170", "unit": "M⁻¹ s⁻¹"}, {"measurement": "Km", "setting": "[9]", "value": "290 ± 31", "unit": "µM"}, {"measurement": "Km", "setting": "[10]", "value": "30 ± 5", "unit": "µM"}, {"measurement": "Km", "setting": "[11]", "value": "8 ± 0.8", "unit": "µM"}, {"measurement": "kcat", "setting": "[11]", "value": "120 ± 3", "unit": "s⁻¹"}, {"measurement": "kcat/Km", "setting": "[11]", "value": "1.5e+07 ± 3.8e+06", "unit": "M⁻¹ s⁻¹"}, {"measurement": "Km", "setting": "[12]", "value": "250 ± 8", "unit": "µM"}]}]}
